Experimental data from PMC11898752, “Functional Characterization of β-Glucuronidase Genes Involved in Baicalein Biosynthesis from Scutellaria baicalensis Based on Transcriptome Analysis” (International Journal of Molecular Sciences, 2025).

Legend:
GUS2 = tested on: T1, GUS2; test: HPLC of baicalein formed, Hanes-Woolf plot; assay type: biochemical, Scutellaria baicalensis; details: PBS pH 9, 45 °C, 40 min
T1 construct: full-length ORF in pEASY-Blunt E1, His-tag purified from E. coli BL21(DE3), about 55 kDa on SDS-PAGE

GUS1 = tested on: T2, GUS1; test: HPLC of baicalein formed, Hanes-Woolf plot; assay type: biochemical, Scutellaria baicalensis; details: PBS pH 9, 45 °C, 40 min
T2 construct: full-length ORF in pEASY-Blunt E1, His-tag purified from E. coli BL21(DE3), about 60 kDa on SDS-PAGE

- Km (GUS2): 0.2732 mg/mL
- Km (GUS1): 0.2826 mg/mL
SMILES: O=C(O)[C@H]1O[C@@H](Oc2cc3oc(-c4ccccc4)cc(=O)c3c(O)c2O)[C@H](O)[C@@H](O)[C@@H]1O [baicalin]
